The values below come from patent US4346097A, “Method for treating convulsions with pyrazole-4-carboxamide derivatives” (Warner-Lambert Company, priority 1980, dated 1982).

A short description of series [1]: Maximal Electroshock Seizure Test, MES. The series is classed as in vivo. The conditions noted are these: for PI MES: Protective Index, ratio of TD50 vs ED50 MES. An excerpt:
(§1) The term convulsions is intended to mean the characteristic body movements which are associated with the group of chronic central nervous system disorders termed, epilepsies.
2. Maximal Electroshock Seizure Test, MES.
(§2) These procedures are described in E. A. Swinyard, et al., Epilepsia, 19, 409 (1978), which is incorporated herein by reference. The TD50 is defined as the median minimal neurotoxic dose.
A general note: Protection in the maximal electroshock model is a classic sign of anticonvulsant action.

The nature of a further series: Rotorod Test, TD50. The conditions noted are these: in vivo.
Text: as §1, §2
Background: Falling from the rotarod earlier than controls is read as motor impairment.

Series [2] can be described thus: Subcutaneous Pentylenetetrazole Seizure Threshold Test, scMet. The series is classed as in vivo. The conditions noted are these: for PI scMet: Protective Index, ratio of TD50 vs ED50 scMet; for ED50: sc.
Text: The compounds of structural formula I are new chemical substances of value as pharmacological agents for the treatment of convulsions in warm-bloodedanimals. The term convulsions is intended to mean the characteristic body movements which are associated with the group of chronic central nervous system disorders termed, epilepsies. The anticonvulsant activity of representative compounds of formula I was established by the following standard test procedures: […]
3. Subcutaneous Pentylenetetrazole Seizure Threshold Test, scMet.
as §2

What is called ED50 is the dose that gives a 50% effect, or the effect in half of the subjects. A high value points to a need for a large dose. Broadly, the TD50 is the 50% point of the dose-response relation for the toxic effect studied. A high value points to lower toxicity. `Cc1ccccc1NC(=O)c1c(C)nn(C)c1N` [5-Amino-1,3-dimethyl-N-(2-methylphenyl)-1H-pyrazole-4-carboxamide]: in series [1], the ED50 turned out to be 25.7 mg/kg and the “PI MES” value was found to be 4.05. In the series “Rotorod Test, TD50”, the TD50 was 104 mg/kg. Also, in series [2], the “PI scMet” value is on record as 1.94 and the ED50 was found to be 53.7 mg/kg.

With `Cc1nn(C)c(N)c1C(=O)Nc1cccc(Cl)c1` [5-Amino-N-(3-chlorophenyl)-1,3-dimethyl-1H-pyrazole-4-carboxamide], in series [1], the ED50 was found to be 47.3 mg/kg and the “PI MES” value was 4.95. In addition, the TD50 in the series “Rotorod Test, TD50” was 234 mg/kg. In series [2], the “PI scMet” value is 2.35 and the ED50 was found to be 99.6 mg/kg.

In turn, `NC(=O)N1c2ccccc2C=Cc2ccccc21` [CARBAMAZEPINE] had a 50% effective dose (ED50) in series [1] of 8.81 mg/kg.

Consider `CCC1(c2ccccc2)NC(=O)N(C)C1=O` (stereo not shown) [MEPHENYTOIN], for which, in series [1], the 50% effect level (ED50) was put at a dose of 60.5 mg/kg and the “PI MES” value came out at 2.54. The compound further registered a TD50 in “Rotorod Test, TD50” of 154 mg/kg. Further, in series [2], the “PI scMet” value is 5.05 and the 50% effect level (ED50) was put at a dose of 30.4 mg/kg.
